Assays:
Rattus norvegicus [1] = test: Anti-inflammatory activity in Rattus norvegicus (rat) assessed as inhibition of carrageenan-induced paw edema at 20 mg/kg, po measured at 30 min post carrageenan-challenge (reference value: 5.1 +/- 0.29%); type: functional; settings: 0.5 h
Rattus norvegicus [2] = test: Anti-inflammatory activity in Rattus norvegicus (rat) assessed as inhibition of carrageenan-induced paw edema at 10 mg/kg, po measured at 30 min post carrageenan-challenge (reference value: 5.1 +/- 0.29%); type: functional; settings: 0.5 h
Mus musculus [3] = test: Analgesic activity in Mus musculus Wistar albino (mouse) at 20 mg/kg, po after 3 hr by tail-flick test (reference value: 4 +/- 0.91%); type: functional
Mus musculus [4] = test: Analgesic activity in Mus musculus Wistar albino (mouse) at 10 mg/kg, po after 3 hr by tail-flick test (reference value: 4 +/- 0.91%); type: functional
Mus musculus [5] = test: Analgesic activity in Mus musculus Wistar albino (mouse) at 20 mg/kg, po after 2 hr by tail-flick test (reference value: 4 +/- 0.59%); type: functional
Mus musculus [6] = test: Analgesic activity in Mus musculus Wistar albino (mouse) at 10 mg/kg, po after 2 hr by tail-flick test (reference value: 4 +/- 0.59%); type: functional
Mus musculus [7] = test: Analgesic activity in Mus musculus Wistar albino (mouse) at 20 mg/kg, po after 1 hr by tail-flick test (reference value: 6 +/- 0.49%); type: functional
Mus musculus [8] = test: Analgesic activity in Mus musculus Wistar albino (mouse) at 10 mg/kg, po after 1 hr by tail-flick test (reference value: 6 +/- 0.49%); type: functional
Mus musculus [9] = test: Analgesic activity in Mus musculus Wistar albino (mouse) at 20 mg/kg, po after 30 min by tail-flick test (reference value: 2 +/- 0.35%); type: functional
Mus musculus [10] = test: Analgesic activity in Mus musculus Wistar albino (mouse) at 10 mg/kg, po after 30 min by tail-flick test (reference value: 2 +/- 0.35%); type: functional
Rattus norvegicus [11] = test: Gastrointestinal toxicity in Rattus norvegicus Wistar albino (rat) assessed as ulcer index at 20 mg/kg, ip administered QD for 3 days measured on day 4 (reference value: 0.15 +/- 0.32); type: organism-based; design: dose 20 mg/kg, route intraperitoneal; settings: in vivo, 72 h
Rattus norvegicus [12] = test: Anti-inflammatory activity in Rattus norvegicus (rat) assessed as inhibition of carrageenan-induced paw edema at 20 mg/kg, po measured at 3 hr post carrageenan-challenge (reference value: 3.2 +/- 0.93%); type: functional
Rattus norvegicus [13] = test: Anti-inflammatory activity in Rattus norvegicus (rat) assessed as inhibition of carrageenan-induced paw edema at 10 mg/kg, po measured at 3 hr post carrageenan-challenge (reference value: 3.2 +/- 0.93%); type: functional
Rattus norvegicus [14] = test: Anti-inflammatory activity in Rattus norvegicus (rat) assessed as inhibition of carrageenan-induced paw edema at 20 mg/kg, po measured at 2 hr post carrageenan-challenge (reference value: 5.7+/- 0.32%); type: functional
Rattus norvegicus [15] = test: Anti-inflammatory activity in Rattus norvegicus (rat) assessed as inhibition of carrageenan-induced paw edema at 10 mg/kg, po measured at 2 hr post carrageenan-challenge (reference value: 5.7+/- 0.32%); type: functional
Rattus norvegicus [16] = test: Anti-inflammatory activity in Rattus norvegicus (rat) assessed as inhibition of carrageenan-induced paw edema at 20 mg/kg, po measured at 1 hr post carrageenan-challenge (reference value: 6.1 +/- 0.27%); type: functional
Rattus norvegicus [17] = test: Anti-inflammatory activity in Rattus norvegicus (rat) assessed as inhibition of carrageenan-induced paw edema at 10 mg/kg, po measured at 1 hr post carrageenan-challenge (reference value: 6.1 +/- 0.27%); type: functional

Compound | inhibition in vivo at 20 mg/kg (Rattus norvegicus [1]) [%] | inhibition in vivo at 10 mg/kg (Rattus norvegicus [2]) [%] | Activity (Mus musculus [3]) [%] | Activity (Mus musculus [4]) [%] | Activity (Mus musculus [5]) [%] | Activity (Mus musculus [6]) [%] | Activity (Mus musculus [7]) [%] | Activity (Mus musculus [8]) [%] | Activity (Mus musculus [9]) [%] | Activity (Mus musculus [10]) [%] | UI (Rattus norvegicus [11]) | inhibition in vivo at 20 mg/kg (Rattus norvegicus [12]) [%] | inhibition in vivo at 10 mg/kg (Rattus norvegicus [13]) [%] | inhibition in vivo at 20 mg/kg (Rattus norvegicus [14]) [%] | inhibition in vivo at 10 mg/kg (Rattus norvegicus [15]) [%] | inhibition in vivo at 20 mg/kg (Rattus norvegicus [16]) [%] | inhibition in vivo at 10 mg/kg (Rattus norvegicus [17]) [%]
CC/C(C)=N/Nc1nc2ccccc2c(=O)n1Cc1ccccc1 | 50 | 45 | 45 | 35 | 76 | 65 | 73 | 62 | 71 | 59 | 0.53 | 39 | 26 | 60 | 51 | 59 | 48
CCC(CC)=NNc1nc2ccccc2c(=O)n1Cc1ccccc1 | 59 | 49 | 50 | 41 | 81 | 72 | 79 | 69 | 74 | 63 | 0.5 | 41 | 30 | 70 | 56 | 68 | 53
CCC/C(C)=N/Nc1nc2ccccc2c(=O)n1Cc1ccccc1 | 58 | 47 | 48 | 40 | 79 | 67 | 77 | 60 | 67 | 58 | 0.48 | 39 | 30 | 67 | 53 | 65 | 51
O=C([O-])Cc1ccccc1Nc1c(Cl)cccc1Cl.[Na+] [DICLOFENAC SODIUM] | 45 | 32 | 39 | 33 | 62 | 45 | 55 | 43 | 46 | 37 | 1.65 | 42 | 33 | 60 | 39 | 52 | 38

Source: ChEMBL document CHEMBL3046395, “Synthesis and pharmacological investigation of novel 3-(benzyl)-2-substituted amino-3H-quinazolin-4-ones as analgesic and anti-inflammatory agents” (Med Chem Res, 2008)
